One test deals with T1, PDE5 (human platelet) (Homo sapiens, UniProt O76074).
T1 construct: PDE5 (human); from tissue; host or cells: human platelets
The test is described as follows: PDE5 (human platelet) inhibition. The class given is biochemical.

In the next test the test system is Rabbit Corpus Cavernosal. The test can be described thus: Relaxation of phenylephrine precontracted rabbit corpus cavernosal strips. The test is classed as cell-based. As to conditions: for IC50 / EC50: Oryctolagus cuniculus. An excerpt: Recently some reports have stated that theophyllline has an adenosine […] antagonist and phosphodiesterase (PDE) inhibitor function. […] FIG. 4A illustrates the experimental results and the effects of compound 14 on phenylphrine precontracted rabbit corpus cavemosal in the absence and presence of L-NAME, methylene blue, ODQ. FIG. 4B illustrates the experimental results and the effects of compound 14 on phenylphrine precontracted rabbit corpus cavernosal in absence and presence of potassium channel blockers.

The subject of another test is intracavernous pressure. The test can be described thus: Intracavernous pressure and tumescence response in rabbits. The class given is in vivo. As to conditions: 2 mg/kg in rabbits.

Consider `CCOc1ccc(S(=O)(=O)N2CCN(C)CC2)cc1CNCCn1cnc2c1c(=O)n(C)c(=O)n2C` [Compound 34, 7-[2-({5-[(4-methylpiperazin-1-yl)sulfonyl]-2-ethoxybenzyl}amino)ethyl] dimethylxanthine], for which half-maximal inhibition against PDE5 (human platelet) (IC50) was put at 0.4 ± 0.2 nM. For the same molecule, in the test with Rabbit Corpus Cavernosal, the “pEC50 (−log EC50) for relaxation” value is 8.13 ± 0.05.

Consider “7-{2-[4-(nitrobenzene)piperazinyl]ethyl}-1,3-dimethylxanthine [Compound 9]”, for which, in the test on intracavernous pressure, the “Duration of tumescence response” value was 16 ± 1.2 min and the “Peak increased intracavernous pressure ΔICP (mmHg)” value is on record as 25 ± 1.3 mmHg.

For `CC(C)Cn1c(=O)n(C)c(=O)c2c1ncn2CCN1CCN(c2ncccn2)CC1` [Compound 12, 7-{2-[4-(2-Pyrimidyl)piperazinyl]ethyl}-3-isobutyl-1-methylxanthine], in the test on intracavernous pressure, the “Duration of tumescence response” value is 15 ± 1.3 min and the “Peak increased intracavernous pressure ΔICP (mmHg)” value amounted to 23 ± 1.5 mmHg.

For `CC(C)Cn1c(=O)n(C)c(=O)c2c1ncn2CCN1CCN(c2ccccc2Cl)CC1` [Compound 14, 7-{2-[4-(2-chlorophenyl)piperazinyl]ethyl}-3-isobutyl-1-methylxanthine], the values for the IC50 on PDE5 (human platelet) and with Rabbit Corpus Cavernosal were 3.8 ± 0.2 nM and 14.5 nM, respectively. In addition, the EC50 was 64.6 nM in the test on Rabbit Corpus Cavernosal (Control (no drug pretreatment)); 1480 nM in the test on Rabbit Corpus Cavernosal (pretreatment 4-AP 100 μM); 269 nM in the test with Rabbit Corpus Cavernosal (pretreatment Glibenclamide 1 μM); 309 nM in the test on Rabbit Corpus Cavernosal (pretreatment L-NAME 100 μM); 309 nM in the test with Rabbit Corpus Cavernosal (pretreatment Methylene blue 10 μM); 162 nM in the test with Rabbit Corpus Cavernosal (pretreatment ODQ 1 μM). Also, the EC50 in the test with Rabbit Corpus Cavernosal (pretreatment TEA 10 mM) is 9180 nM.

As for `Cn1c(=O)c2c(ncn2CCN2CCN(Cc3ccccc3)CC2)n(C)c1=O` [Compound 7, 7-{2-[4-benzylpiperazinyl]ethyl}-1,3-dimethylxanthine], the IC50 at PDE5 (human platelet) is 4.2 ± 0.2 nM; with Rabbit Corpus Cavernosal, 74.1 nM.

As to `CC(C)Cn1c(=O)n(C)c(=O)c2c1ncn2CCN1CCN(Cc2ccccc2)CC1` [Compound 17, 7-{2-[4-benzylpiperazinyl]ethyl}-3-isobutyl-1-methylxanthine], the IC50 against PDE5 (human platelet) was 6.2 ± 0.2 nM; with Rabbit Corpus Cavernosal it was 22.9 nM.

On PDE5 (human platelet), “7-{2-[(2-propoxybenzyl)aniino]ethyl}-3-isobutyl-1-methylxanthine [Compound 38]” yielded an IC50 of 0.6 ± 0.2 nM. In the test on Rabbit Corpus Cavernosal, the “pEC50 (−log EC50) for relaxation” value stood at 8.16 ± 0.07.

As to `COc1ccccc1N1CCN(CCn2cnc3c2c(=O)n(C)c(=O)n3C)CC1` [Compound 10, 7-{2-[4-(o-Methoxyphenyl)piperazinyl]ethyl}-1,3-dimethylxanthine], in the test on intracavernous pressure, the “Duration of tumescence response” value turned out to be 13 ± 2.1 min and the “Peak increased intracavernous pressure ΔICP (mmHg)” value is listed as 12 ± 1.6 mmHg.

For `Cn1c(=O)c2c(ncn2CCN2CCN(c3ccccc3Cl)CC2)n(C)c1=O` [Compound 4, 7-{2-[4-(2-chlorophenyl)piperazinyl]ethyl}-1,3-dimethylxanthine], the IC50 is 3.9 ± 0.1 nM against PDE5 (human platelet) and 69.2 nM with Rabbit Corpus Cavernosal. For the same molecule, in the test with intracavernous pressure, the “Duration of tumescence response” value came to 14 ± 1.1 min. Moreover, in the test on intracavernous pressure, the “Peak increased intracavernous pressure ΔICP (mmHg)” value is reported as 14 ± 2.1 mmHg.

`Cc1ccccc1S(=O)(=O)N1CCN(CCn2cnc3c2c(=O)n(C)c(=O)n3CC(C)C)CC1` [Compound 26, 7-(2-{4-[(2-methylphenyl)sulfonyl]piperazinyl}ethyl)-3-isobutyl-1-methylxanthine]: the IC50 at PDE5 (human platelet) was 4.8 ± 0.2 nM; with Rabbit Corpus Cavernosal it was 38 nM.

With `CCCn1cnc2c1c(=O)n(C)c(=O)n2CC(C)C` [Compound 46], the IC50 against PDE5 (human platelet) stood at 5.2 ± 0.1 nM. Moreover, the “pEC50 (−log EC50) for relaxation” value in the test on Rabbit Corpus Cavernosal is 7.96 ± 0.03.

On to “7-[12-({5-[(4-methylpiperazin-1-yl)sulfonyl]-2-propoxybenzyl}amino)ethyl] dimethylxanthine [Compound 35]”, for which inhibition at PDE5 (human platelet) was half-maximal at 0.4 ± 0.1 nM (IC50). In addition, in the test with Rabbit Corpus Cavernosal, the “pEC50 (−log EC50) for relaxation” value amounted to 8.25 ± 0.06.

As for `CCCOc1ccc(C(N)=O)cc1CNCCn1cnc2c1c(=O)n(C)c(=O)n2CC(C)C` [Compound 41, 4-propoxy-3-({[2-(3-isobutyl-1-methyl-2,6-dioxo-1,2,3,6-tetrahydro-7H-purin-7-yl)ethyl]amino}methyl)benzamide], the IC50 on PDE5 (human platelet) is 0.8 ± 0.2 nM; in the test on Rabbit Corpus Cavernosal it was 5.01 nM.

Consider `CC(C)Cn1c(=O)n(C)c(=O)c2c1ncn2CCN1CCN(C(=O)c2ccco2)CC1` [Compound 18, 7-{2-[4-(2-furoyl)piperazinyl]ethyl}-3-isobutyl-1-methylxanthine], for which, in the test on intracavernous pressure, the “Duration of tumescence response” value stood at 18 ± 1.3 min and the “Peak increased intracavernous pressure ΔICP (mmHg)” value stood at 26 ± 1.4 mmHg.

One may read the IC50 as the concentration needed to halve the response being measured. By EC50 is commonly meant the concentration at which the effect is half-maximal.

Source of the values: patent publication US7550468B2, “Theophylline and 3-isobutyl-1 methylxanthine based N-7 substituted derivatives displaying inhibitory activities on PDE-5 phospodiesterase” (priority 2000, dated 2009).
